Assay results reported in patent US20150141336A1, “Pancreatic Peptide Compounds and Use” (Novo Nordisk A/S, priority 2012, published 2015).
Numbered stars: 1 amine (or outer) side, 2 acyl side, 3 side chain; on linkers, the order of the positions; unused ones are H or OH. Side chains are listed from the residue outwards. Peptide text beside a SMILES is read from it. * marks the point of attachment. C18 diacid = O=C(O)CCCCCCCCCCCCCCCCC(=O)*; γGlu = O=C(O)[C@H](CCC(=O)[*:2])N[*:1]; AEEA = NCCOCCOCC(=O)O

Assay: Assay (II) PK i.v. minipig, in vivo half-life
Parameters: species or system Göttingen mini-pigs
Conditions: male, Göttingen, minipig, iv, Half-life minipig, Assay (II)
How it was run: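 Male Göttingen mini-pigs (18–22 kg, n=5) received 6 nmol/kg i.v. via central catheter, formulated in 50 mM K2HPO4, 0.05% tween 80, pH 8.0. EDTA plasma sampled pre-dose to 240 h, quantified by TFC/LC/MS/MS (MRM, range 1-2000 nmol/l); half-life from non-compartmental analysis per animal.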

half-life [h]	SMILES
44	CC[C@H](C)[C@H](NC(=O)[C@H](CCCCNC(=O)COCCOCCNC(=O)COCCOCCNC(=O)CC[C@H](NC(=O)CCCCCCCCCCCCCCCCC(=O)O)C(=O)O)NC(=O)[C@H](CCCNC(=N)N)NC(=O)[C@H](CCCNC(=N)N)NC(=O)[C@H](CC(C)C)NC(=O)[C@H](CC(=O)O)NC(=O)[C@H](C)NC(=O)[C@H](C)NC(=O)[C@H](Cc1ccc(O)cc1)NC(=O)[C@H](CCC(N)=O)NC(=O)[C@H](C)NC(=O)[C@H](CCSC)NC(=O)[C@H](CCC(N)=O)NC(=O)[C@H](CCC(=O)O)NC(=O)[C@@H]1CCCN1C(=O)[C@@H](NC(=O)[C@H](C)NC(=O)[C@H](CC(N)=O)NC(=O)[C@H](CC(=O)O)NC(=O)CNC(=O)[C@@H]1CCCN1C(=O)[C@H](Cc1ccc(O)cc1)NC(=O)[C@@H](NC(=O)[C@@H]1CCCN1C(=O)[C@H](CCC(=O)O)NC(=O)[C@@H](N)CC(C)C)C(C)C)[C@@H](C)O)C(=O)N[C@@H](CC(N)=O)C(=O)N[C@@H](CCSC)C(=O)N[C@@H](CC(C)C)C(=O)N[C@H](C(=O)N[C@@H](CCCNC(=N)N)C(=O)N1CCC[C@H]1C(=O)N[C@@H](CCCNC(=N)N)C(=O)N[C@@H](Cc1ccc(O)cc1)C(N)=O)[C@@H](C)O [Compound AO] (H-LEPVYPGDNATPEQMAQYAADLRRK([AEEA-AEEA-γGlu-C18 diacid])INMLTRPRY-NH2; N-terminus and C-terminus assumed)
28	CC[C@H](C)[C@H](NC(=O)[C@H](Cc1ccc(O)cc1)NC(=O)[C@H](CCCNC(=N)N)NC(=O)[C@H](CCCNC(=N)N)NC(=O)[C@H](CC(C)C)NC(=O)[C@H](CC(=O)O)NC(=O)[C@H](C)NC(=O)[C@H](C)NC(=O)[C@H](CCCCNC(=O)COCCOCCNC(=O)COCCOCCNC(=O)CC[C@H](NC(=O)CCCCCCCCCCCCCCCCC(=O)O)C(=O)O)NC(=O)[C@H](CCC(N)=O)NC(=O)[C@H](C)NC(=O)[C@H](CCSC)NC(=O)[C@H](CCC(N)=O)NC(=O)[C@H](CCC(=O)O)NC(=O)[C@@H]1CCCN1C(=O)[C@@H](NC(=O)[C@H](C)NC(=O)[C@H](CC(N)=O)NC(=O)[C@H](CC(=O)O)NC(=O)CNC(=O)[C@@H]1CCCN1C(=O)[C@H](Cc1ccc(O)cc1)NC(=O)[C@@H](NC(=O)[C@@H]1CCCN1C(=O)[C@H](CCC(=O)O)NC(=O)[C@@H](N)CC(C)C)C(C)C)[C@@H](C)O)C(=O)N[C@@H](CC(N)=O)C(=O)N[C@@H](CCSC)C(=O)N[C@@H](CC(C)C)C(=O)N[C@H](C(=O)N[C@@H](CCCNC(=N)N)C(=O)N1CCC[C@H]1C(=O)N[C@@H](CCCNC(=N)N)C(=O)N[C@@H](Cc1ccc(O)cc1)C(N)=O)[C@@H](C)O [Compound AV] (H-LEPVYPGDNATPEQMAQK([AEEA-AEEA-γGlu-C18 diacid])AADLRRYINMLTRPRY-NH2; N-terminus and C-terminus assumed)
33	CC[C@H](C)[C@H](NC(=O)[C@H](Cc1ccc(O)cc1)NC(=O)[C@H](CCCNC(=N)N)NC(=O)[C@H](CCCNC(=N)N)NC(=O)[C@H](CC(C)C)NC(=O)[C@H](CC(=O)O)NC(=O)[C@H](C)NC(=O)[C@H](C)NC(=O)[C@H](Cc1ccc(O)cc1)NC(=O)[C@H](CCCCNC(=O)COCCOCCNC(=O)COCCOCCNC(=O)CC[C@H](NC(=O)CCCCCCCCCCCCCCCCC(=O)O)C(=O)O)NC(=O)[C@H](C)NC(=O)[C@H](CCSC)NC(=O)[C@H](CCC(N)=O)NC(=O)[C@H](CCC(=O)O)NC(=O)[C@@H]1CCCN1C(=O)[C@@H](NC(=O)[C@H](C)NC(=O)[C@H](CC(N)=O)NC(=O)[C@H](CC(=O)O)NC(=O)CNC(=O)[C@@H]1CCCN1C(=O)[C@H](Cc1ccc(O)cc1)NC(=O)[C@@H](NC(=O)[C@@H]1CCCN1C(=O)[C@H](CCC(=O)O)NC(=O)[C@@H](N)CC(C)C)C(C)C)[C@@H](C)O)C(=O)N[C@@H](CC(N)=O)C(=O)N[C@@H](CCSC)C(=O)N[C@@H](CC(C)C)C(=O)N[C@H](C(=O)N[C@@H](CCCNC(=N)N)C(=O)N1CCC[C@H]1C(=O)N[C@@H](CCCNC(=N)N)C(=O)N[C@@H](Cc1ccc(O)cc1)C(N)=O)[C@@H](C)O [Compound AW] (H-LEPVYPGDNATPEQMAK([AEEA-AEEA-γGlu-C18 diacid])YAADLRRYINMLTRPRY-NH2; N-terminus and C-terminus assumed)
60	CC[C@H](C)[C@H](NC(=O)[C@H](Cc1ccc(O)cc1)NC(=O)[C@H](CCCNC(=N)N)NC(=O)[C@H](CCCNC(=N)N)NC(=O)[C@H](CC(C)C)NC(=O)[C@H](CC(=O)O)NC(=O)[C@H](C)NC(=O)[C@H](C)NC(=O)[C@H](Cc1ccc(O)cc1)NC(=O)[C@H](CCCCNC(=O)COCCOCCNC(=O)COCCOCCNC(=O)CC[C@H](NC(=O)CCCCCCCCCCCCCCCCC(=O)O)C(=O)O)NC(=O)[C@H](C)NC(=O)[C@H](CCSC)NC(=O)[C@H](CCC(N)=O)NC(=O)[C@H](CCC(=O)O)NC(=O)[C@@H]1CCCN1C(=O)[C@@H](NC(=O)[C@H](C)NC(=O)[C@H](CC(N)=O)NC(=O)[C@H](CC(=O)O)NC(=O)CNC(=O)[C@@H]1CCCN1C(=O)[C@H](Cc1ccc(O)cc1)NC(=O)[C@@H](NC(=O)[C@@H]1CCCN1C(=O)[C@H](CCC(=O)O)NC(=O)[C@H](CC(C)C)NC(=O)[C@@H]1CCCN1)C(C)C)[C@@H](C)O)C(=O)N[C@@H](CC(N)=O)C(=O)N[C@@H](CCSC)C(=O)N[C@@H](CC(C)C)C(=O)N[C@H](C(=O)N[C@@H](CCCNC(=N)N)C(=O)N1CCC[C@H]1C(=O)N[C@@H](CCCNC(=N)N)C(=O)N[C@@H](Cc1ccc(O)cc1)C(N)=O)[C@@H](C)O [Compound O] (H-PLEPVYPGDNATPEQMAK([AEEA-AEEA-γGlu-C18 diacid])YAADLRRYINMLTRPRY-NH2; N-terminus and C-terminus assumed)
59	CC[C@H](C)[C@H](NC(=O)[C@H](Cc1ccc(O)cc1)NC(=O)[C@H](CCCNC(=N)N)NC(=O)[C@H](CCCNC(=N)N)NC(=O)[C@H](CC(C)C)NC(=O)[C@H](CC(=O)O)NC(=O)[C@H](C)NC(=O)[C@H](C)NC(=O)[C@H](Cc1ccc(O)cc1)NC(=O)[C@H](CCC(N)=O)NC(=O)[C@H](C)NC(=O)[C@H](CCSC)NC(=O)[C@H](CCC(N)=O)NC(=O)[C@H](CCC(=O)O)NC(=O)[C@@H]1CCCN1C(=O)[C@@H](NC(=O)[C@H](C)NC(=O)[C@H](CC(N)=O)NC(=O)[C@H](CC(=O)O)NC(=O)CNC(=O)[C@@H]1CCCN1C(=O)[C@H](Cc1ccc(O)cc1)NC(=O)[C@@H](NC(=O)[C@@H]1CCCN1C(=O)[C@H](CCC(=O)O)NC(=O)[C@@H](N)CC(C)C)C(C)C)[C@@H](C)O)C(=O)N[C@@H](CC(N)=O)C(=O)N[C@@H](CCCCNC(=O)COCCOCCNC(=O)COCCOCCNC(=O)CC[C@H](NC(=O)CCCCCCCCCCCCCCCCC(=O)O)C(=O)O)C(=O)N[C@@H](CC(C)C)C(=O)N[C@H](C(=O)N[C@@H](CCCNC(=N)N)C(=O)N1CCC[C@H]1C(=O)N[C@@H](CCCNC(=N)N)C(=O)N[C@@H](Cc1ccc(O)cc1)C(N)=O)[C@@H](C)O [Compound AL] (H-LEPVYPGDNATPEQMAQYAADLRRYINK([AEEA-AEEA-γGlu-C18 diacid])LTRPRY-NH2; N-terminus and C-terminus assumed)
110	CC[C@H](C)[C@H](NC(=O)[C@H](Cc1ccc(O)cc1)NC(=O)[C@H](CCCNC(=N)N)NC(=O)[C@H](CCCNC(=N)N)NC(=O)[C@H](CC(C)C)NC(=O)[C@H](CC(=O)O)NC(=O)[C@H](C)NC(=O)[C@H](C)NC(=O)[C@H](Cc1ccc(O)cc1)NC(=O)[C@H](CCC(N)=O)NC(=O)[C@H](C)NC(=O)[C@H](CCSC)NC(=O)[C@H](CCC(N)=O)NC(=O)[C@H](CCC(=O)O)NC(=O)[C@@H]1CCCN1C(=O)[C@@H](NC(=O)[C@H](C)NC(=O)[C@H](CC(N)=O)NC(=O)[C@H](CC(=O)O)NC(=O)CNC(=O)[C@@H]1CCCN1C(=O)[C@H](Cc1ccc(O)cc1)NC(=O)[C@@H](NC(=O)[C@@H]1CCCN1C(=O)[C@H](CCC(=O)O)NC(=O)[C@H](CC(C)C)NC(=O)[C@@H]1CCCN1)C(C)C)[C@@H](C)O)C(=O)N[C@@H](CCCCNC(=O)COCCOCCNC(=O)COCCOCCNC(=O)CC[C@H](NC(=O)CCCCCCCCCCCCCCCCC(=O)O)C(=O)O)C(=O)N[C@@H](CCSC)C(=O)N[C@@H](CC(C)C)C(=O)N[C@H](C(=O)N[C@@H](CCCNC(=N)N)C(=O)N1CCC[C@H]1C(=O)N[C@@H](CCCNC(=N)N)C(=O)N[C@@H](Cc1ccc(O)cc1)C(N)=O)[C@@H](C)O [Compound E] (H-PLEPVYPGDNATPEQMAQYAADLRRYIK([AEEA-AEEA-γGlu-C18 diacid])MLTRPRY-NH2; N-terminus and C-terminus assumed)
77	CC[C@H](C)[C@H](NC(=O)[C@H](Cc1ccc(O)cc1)NC(=O)[C@H](CCCNC(=N)N)NC(=O)[C@H](CCCNC(=N)N)NC(=O)[C@H](CC(C)C)NC(=O)[C@H](CC(=O)O)NC(=O)[C@H](C)NC(=O)[C@H](CCCCNC(=O)COCCOCCNC(=O)COCCOCCNC(=O)CC[C@H](NC(=O)CCCCCCCCCCCCCCCCC(=O)O)C(=O)O)NC(=O)[C@H](Cc1ccc(O)cc1)NC(=O)[C@H](CCC(N)=O)NC(=O)[C@H](C)NC(=O)[C@H](CCSC)NC(=O)[C@H](CCC(N)=O)NC(=O)[C@H](CCC(=O)O)NC(=O)[C@@H]1CCCN1C(=O)[C@@H](NC(=O)[C@H](C)NC(=O)[C@H](CC(N)=O)NC(=O)[C@H](CC(=O)O)NC(=O)CNC(=O)[C@@H]1CCCN1C(=O)[C@H](Cc1ccc(O)cc1)NC(=O)[C@@H](NC(=O)[C@@H]1CCCN1C(=O)[C@H](CCC(=O)O)NC(=O)[C@H](CC(C)C)NC(=O)[C@@H]1CCCN1)C(C)C)[C@@H](C)O)C(=O)N[C@@H](CC(N)=O)C(=O)N[C@@H](CCSC)C(=O)N[C@@H](CC(C)C)C(=O)N[C@H](C(=O)N[C@@H](CCCNC(=N)N)C(=O)N1CCC[C@H]1C(=O)N[C@@H](CCCNC(=N)N)C(=O)N[C@@H](Cc1ccc(O)cc1)C(N)=O)[C@@H](C)O [Compound M] (H-PLEPVYPGDNATPEQMAQYK([AEEA-AEEA-γGlu-C18 diacid])ADLRRYINMLTRPRY-NH2; N-terminus and C-terminus assumed)
